Results: patent US7407745B1, “Method for screening anticancer agent” (Chugai Seiyaku Kabushiki Kaisha, priority 1999, dated 2008)

What was measured:
[1] = test system: GAL4-Sp3 deletion mutant proteins; assay: Reporter assay using the GAL4 binding sequence (pG5-luc), GAL4-Sp3 deletion mutants, MG63 cells; type: cell-based, human; details: TSA 500 ng/ml, 24 hours
From the text: (§1) This yielded pM-Sp1, pM-Sp3, pM-DNSp1, and pM-DNSp3, respectively. Each of the Sp1 and Sp3 genes was amplified by PCR. Specifically, pM-Sp1 production employed Sp1-S (5′-acaggtgagcttga-3′/SEQ ID NO: 4) and Sp1-AS (5′-tcagaagccattgcc-3′/SEQ ID NO: 5) as primers and used pPacSp1 as template for amplification (Kadonaga, J. T. et al., (1987) Cell 51:1079-1090). pM-DNSp1 production employed DNSp1-S (5′-[…]-3′/SEQ ID NO: 6) and DNSp1-AS (5′-gaagcatgcacctgc-3′/SEQ ID NO: 7) as primers and used pM-Sp1 as template for amplification (Kadonaga, J. T. et al., (1987) Cell 51: 1079-1090). pM-Sp3 production employed Sp3-18F (5′-[…]-3′/SEQ ID NO: 8) and Sp3-2R (5′-[…]-3′/SEQ ID NO: 9) as primers and used Marathon-Ready cDNA (Human Fetal Liver) (Clontech, Cat. #7403-1) as template for amplification (Chris, K. et al., (1992) J. Biol. Chem. 12: 4251-4261). pM-DNSp3 production employed Sp3-11F (5′-[…]-3′/SEQ ID NO: 10) and Sp3-2R (SEQ ID NO: 9) as primers and used pM-Sp3 as template for amplification (Chris, K. et al., (1992) J. Biol. Chem. 12: 4251-4261). All PCRs were carried out by performing 30 cycles of 94° C. for 1 minute, 55° C. for 30 seconds, and 72° C. for 30 seconds. The resulting PCR amplified product was inserted into a pM vector and the nucleotide sequence was confirmed using a DNA sequencer, ABI PRISM 355 (Applied Bio System). As a control for the transfection test, pM that only expresses the GAL4 DNA binding domain was employed. The reporter plasmid (pG5-luc) used to indicate the dependence of transcriptional activation, on GAL4 was pGL3-Basic Vector (Promega), which carried the 5×GAL4 binding sequence, E1B minimum promoter, and TATA sequence, upstream of the luciferase gene.
The expression vector described above encoding various Sp1 or Sp3 GAL4 fusion proteins and the abovementioned vector carrying a luciferase reporter gene downstream of the consensus 5×GAL4 binding sequence were cotransfected into MG63 cells using SuperFect following the method by QIAGEN. Namely, cells were seeded at a density of 0.8×10^5 cells/well in a 12-well plate. After 24 hours, a pre-mixed reaction solution containing 0.5 μg of reporter plasmid, 2.5 μg of expression vector, and SuperFect were added to the MG63 cells and the mixture was reacted for 2 hours. Subsequently, the cells were cultured for 24 hours under normal culture conditions, cultured for another 24 hours with or without (control) 500 ng/ml of TSA, and then, the cells were lysed. Using luciferase substrate (Promega), luciferase activity of the cell lysates was measured using LB-96P (Berthold). The measured values were normalized and were expressed as activity per amount of protein. Transcriptional induction due to TSA treatment was calculated as a ratio with respect to the TSA-untreated control value (activation amplification by TSA).
Next, reporter assay was performed using various Sp3 deletion mutants fused to the GAL4 DNA binding domain in order to identify the TSA responsive region of Sp3. First, pM-Sp3 (1-398), pM-Sp3 (81-398), pM-Sp3 (161-398), pM-Sp3 (241-398), pM-Sp3 (1-80), pM-Sp3 (1-160), pM-Sp3 (1-240), and pM-Sp3 (1-320) were prepared. They respectively carry regions corresponding to the indicated amino acid numbers. […]
As a control for the transfection test, pM expressing only the GAL4 DNA binding domain was used. […] Transfection using these genes followed the same method as described above, and the occurrence of transcriptional induction due to TSA treatment in these mutants was monitored.

[2] = test system: consensus Sp1 binding sequence; assay: Luciferase reporter assay of 3xSp1 binding sequence (Sp1-luc, mtSp1-luc) with dominant negative Sp3, MG63 cells; type: cell-based, human
GAL4-Sp3 = assay: Reporter assay using the GAL4 binding sequence (pG5-luc), GAL4-Sp3, MG63 cells; type: cell-based, human; details: GAL4-Sp3 (full-length Sp3, amino acids 1-653), TSA 500 ng/ml, 24 hours
From the text: as §1, with “As a control for the transfection test, pM that only expresses the GAL4 DNA binding domain was employed. The reporter plasmid (pG5-luc) used to indicate the dependence of transcriptional activation, on GAL4 was pGL3-Basic Vector (Promega), which carried the 5×GAL4 binding sequence, E1B minimum promoter, and TATA sequence, upstream of the luciferase gene.” left out

[3] = test system: Sp1 binding sequence in the p21/WAF1/Cip1 promoter; assay: Gel shift assay (EMSA) with nuclear extracts of TSA-treated and untreated MG63 cells; parameters: species or system human; details: 500 ng/ml TSA for 24 hours vs untreated
Method: First, MG63 cells were incubated at 37° C. in a humidified atmosphere of 5% CO2 using DMEM medium (GIBCO BRL) containing 10% fetal calf serum (GIBCO BRL). Nuclear extracts of these cells were prepared from both TSA-treated and untreated cells, according to the method of Dignam et al. (Dignam, J. D. et al., (1983) Nucleic Acids Res. 11:1475-1489). First, cells cultured in a dish (100 mm) were incubated for 24 hours with 500 ng/ml TSA (Wako). This was then washed twice with cold PBS containing 0.5 mM 4-(2-aminoethyl)benzenesulfonyl fluoride HCl (p-ABSF) (Wako), the cells were scraped from the plate, and suspended in 10 mM Hepes/KOH buffer (pH7.9) containing 10 mM KCl, 1.5 mM MgCl2, 0.5 mM DTT, 5 mM NaF, 5 mM NaVO4, and 0.5 mM p-ABSF. After placing on ice for 10 minutes, the cells were disrupted using a Dounce homogenizer. […]
Next, based on the TSA-dependent promoter sequence (5′-CGGGTCCCGCCTCCTT-3′/SEQ ID NO: 1) located −87 to −72 bp from the transcription start site of the p21/WAF1/Cip1 gene, oligonucleotides (5′-[…]-3′/SEQ ID NO: 2, and 5′-[…]-3′/SEQ ID NO: 3) were synthesized. […] The reaction solution was resolved by electrophoresis on a 6% acrylamide gel and the proteins that bind to the p21/WAF1/Cip1 probe were detected using BAS 2000 (Fujix).

p21/WAF1/Cip1 promoter = assay: Luciferase reporter assay of p21/WAF1/Cip1 promoter (pWWP, pWPdel-BstXI) with dominant negative Sp3, MG63 cells; type: cell-based, human; details: pWWP and pWPdel-BstXI reporters, forced expression of DNSp3 (pCMV-DNSp3), TSA 500 ng/ml
[4] = test system: all-trans-retinoic acid resistant acute promyelocytic leukemia; details: in combination with all-trans retinoic acid; cited from earlier work

Row | Compound | TSA dependent transcriptional induction ([1]; GAL4-DNSp3 (amino acids 399-653)) | TSA dependent transcriptional induction ([1]; GAL4-Sp3 (1-80)) | TSA dependent transcriptional induction ([1]; GAL4-Sp3 (1-398)) | TSA dependent transcriptional induction ([1]; GAL4-Sp3 (81-160) alone) | TSA dependent transcriptional induction ([1]; GAL4-Sp3 (241-398)) | TSA dependent transcriptional induction driven by the consensus Sp1 binding sequence ([2]; Sp1-luc reporter, forced expression of DNSp3, TSA 500 ng/ml) | transcriptional induction by TSA ([2]; mtSp1-luc reporter (mutated Sp1 binding sequence), TSA 500 ng/ml) | transcriptional induction of the luciferase gene by TSA (ratio to TSA-untreated control) (GAL4-Sp3) | amount of DNA bound by Sp1 and Sp3 [3] | transcriptional induction of p21/WAF1/Cip1 by TSA (p21/WAF1/Cip1 promoter) | remission of leukemia [4]
1 | CC(/C=C/C(=O)NO)=C\[C@@H](C)C(=O)c1ccc(N(C)C)cc1 [TSA, Trichostatin A] | no longer showed TSA dependent transcriptional induction | induction due to TSA treatment disappeared | stronger than with GAL4-Sp3 | almost no activity | induction due to TSA treatment disappeared | marked repression | did not take place | strong transcriptional induction | a difference in the amount of DNA bound by Sp1 and Sp3 due to the presence or absence of TSA treatment could not be observed | remarkably repressed by DNSp3 | 
2 | sodium phenylbutyrate |  |  |  |  |  |  |  |  |  |  | complete remission
